By IC50 is commonly meant the concentration needed to halve the response being measured. Higher therefore signals weaker potency in that assay.

This note sets out measurements from BindingDB's records for patent US20250197403 (Achillion Pharmaceuticals, 2025).

In this assay the target is Complement factor D (Homo sapiens, UniProt P00746). In words: Human Factor D Assay. How it is done: Human Factor D (purified from human serum, Complement Technology, Inc.) at 80 nM final concentration is incubated with test compound at various concentrations for 5 min at room temperature in 50 mM Tris, 1M NaCl, pH 7.5. A synthetic substrate Z-L-Lys-SBzl and DTNB (Ellman's reagent) are added to final concentrations of 100 μM each. Absorbance at 405 nm (A405) is recorded at 30 second intervals for 30 min using a microplate spectrophotometer. IC50 values are calculated by nonlinear regression of complement Factor D reaction rates as a function of test compound concentration.
Chain of Complement factor D (P00746 whole entry): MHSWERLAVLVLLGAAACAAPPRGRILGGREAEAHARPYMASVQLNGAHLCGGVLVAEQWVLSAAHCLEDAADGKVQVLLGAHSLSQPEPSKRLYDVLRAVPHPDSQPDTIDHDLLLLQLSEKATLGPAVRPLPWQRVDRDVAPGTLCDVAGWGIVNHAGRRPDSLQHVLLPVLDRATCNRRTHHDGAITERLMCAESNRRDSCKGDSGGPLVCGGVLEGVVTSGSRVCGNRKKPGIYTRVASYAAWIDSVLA
The compound `COCc1ccc(Br)nc1NC(=O)[C@@H]1C[C@@]2(C)C[C@H]2N1C(=O)Cn1cc(C(C)=O)c2cc(-c3ccc4nc(C)nn4c3)cc(C)c21` [US20250197403, Compound 62] gave an IC50 of under 1000 nM.
Compound `CC(=O)c1cn(CC(=O)N2C[C@H]3C[C@H]3[C@H]2C(=O)Nc2nc(C(F)(F)F)ccc2C)c2c(C)cc(-c3cnc4cc(C)nn4c3)cc12` [US20250197403, Compound 1] returned a concentration for half-maximal inhibition (IC50) of under 1000 nM.
Turning to `CC(=O)c1cn(CC(=O)N2[C@H](C(=O)Nc3nc(Br)ccc3C3CC3)C[C@@]3(C)C[C@@H]23)c2c(C)cc(-c3cnc(C)nc3)cc12` [US20250197403, Compound 9], the IC50 is under 1000 nM.
`CC(=O)c1cn(CC(=O)N2[C@H](C(=O)Nc3cncc(C(F)(F)F)n3)C[C@@]3(C)C[C@@H]23)c2c(C)cc(-c3cnc4cc(C)nn4c3)cc12` [US20250197403, Compound 48] registered an IC50 of under 1000 nM.
As for `CC(=O)c1cn(CC(=O)N2C[C@@](F)(CF)C[C@H]2C(=O)Nc2nc(C(F)(F)F)ccc2Cl)c2c(C)nc(-c3cnc4cc(C)nn4c3)cc12` [US20250197403, Compound 92], the IC50 is under 1000 nM.
Compound `CC(=O)c1cn(CC(=O)N2[C@H](C(=O)Nc3nc(C(F)(F)F)ccc3C)C[C@@]3(C)C[C@@H]23)c2c(C)cc(-c3cnc4sc(C)nc4c3)cc12` [US20250197403, Compound 70] came in with an IC50 of under 1000 nM.
